# Source: the supplement of paper PMC10307832
# Experiments:
# Assay in all cases: relative viability (nuclei count vs DMSO), 5 days (fraction); higher = more cells survive
# A-427 = tested on: A-427
# How it was run: (§1)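 Dosing by pin tool came one day after lung cancer cell lines were seeded in 1536-well plates, using either one drug or a fixed anchor-drug dose plus five library-drug doses (not always all listed) in √10 steps. After 5 days, nuclei were counted on 4× images. Relative viability is treated-well nuclei count divided by vehicle-well nuclei count, and values are medians of duplicate plates.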
# COR-L23 = tested on: COR-L23
# How it was run: as §1
# ChaGo-K-1 = tested on: ChaGo-K-1
# How it was run: as §1
# EMC-BAC-2 = tested on: EMC-BAC-2
# How it was run: as §1
# HARA = tested on: HARA
# How it was run: as §1
# HCC-15 = tested on: HCC-15
# How it was run: as §1
# HCC-366 = tested on: HCC-366
# How it was run: as §1
# HCC-78 = tested on: HCC-78
# How it was run: as §1
# LC-2-ad = tested on: LC-2-ad
# How it was run: as §1
# LK-2 = tested on: LK-2
# How it was run: as §1
# NCI-H1650 = tested on: NCI-H1650
# How it was run: as §1
# NCI-H1734 = tested on: NCI-H1734
# How it was run: as §1
# NCI-H1793 = tested on: NCI-H1793
# How it was run: as §1
# NCI-H1944 = tested on: NCI-H1944
# How it was run: as §1
# NCI-H1993 = tested on: NCI-H1993
# How it was run: as §1
# NCI-H2009 = tested on: NCI-H2009
# How it was run: as §1
# NCI-H2023 = tested on: NCI-H2023
# How it was run: as §1
# NCI-H2228 = tested on: NCI-H2228
# How it was run: as §1
# NCI-H23 = tested on: NCI-H23
# How it was run: as §1
# NCI-H2405 = tested on: NCI-H2405
# How it was run: as §1
# NCI-H838 = tested on: NCI-H838
# How it was run: as §1
# SK-LU-1 = tested on: SK-LU-1
# How it was run: as §1
# UMC-11 = tested on: UMC-11
# How it was run: as §1
smiles,measurement,setting,value
COc1cc(N2CCC(C(N)=O)CC2)ccc1Nc1nc(N)c(Cl)c(Nc2ccccc2S(=O)(=O)C(C)C)n1 [HG-5-88-01] + CC(=O)Nc1cccc(-n2c(=O)n(C3CC3)c(=O)c3c(Nc4ccc(I)cc4F)n(C)c(=O)c(C)c32)c1 [Trametinib] (partner 0.02 µM),relative viability,A-427; first compound 0.04 µM,0.8
same,relative viability,A-427; first compound 0.1265 µM,0.754
same,relative viability,A-427; first compound 0.4 µM,0.749
same,relative viability,A-427; first compound 1.265 µM,0.662
same,relative viability,A-427; first compound 4 µM,0.487
same,relative viability,COR-L23; first compound 0.04 µM,0.502
same,relative viability,COR-L23; first compound 0.1265 µM,0.664
same,relative viability,COR-L23; first compound 0.4 µM,0.51
same,relative viability,COR-L23; first compound 1.265 µM,0.488
same,relative viability,COR-L23; first compound 4 µM,0.368
same,relative viability,ChaGo-K-1; first compound 0.04 µM,0.868
same,relative viability,ChaGo-K-1; first compound 0.1265 µM,0.908
same,relative viability,ChaGo-K-1; first compound 0.4 µM,0.843
same,relative viability,ChaGo-K-1; first compound 1.265 µM,0.925
same,relative viability,ChaGo-K-1; first compound 4 µM,0.875
same,relative viability,EMC-BAC-2; first compound 0.04 µM,0.927
same,relative viability,EMC-BAC-2; first compound 0.1265 µM,0.939
same,relative viability,EMC-BAC-2; first compound 0.4 µM,0.8
same,relative viability,EMC-BAC-2; first compound 1.265 µM,0.564
same,relative viability,EMC-BAC-2; first compound 4 µM,0.632
same,relative viability,HARA; first compound 0.04 µM,1.01
same,relative viability,HARA; first compound 0.1265 µM,0.709
same,relative viability,HARA; first compound 0.4 µM,0.91
same,relative viability,HARA; first compound 1.265 µM,0.394
same,relative viability,HARA; first compound 4 µM,0.465
same,relative viability,HCC-15; first compound 0.04 µM,0.372
same,relative viability,HCC-15; first compound 0.1265 µM,0.359
same,relative viability,HCC-15; first compound 0.4 µM,0.36
same,relative viability,HCC-15; first compound 1.265 µM,0.314
same,relative viability,HCC-15; first compound 4 µM,0.251
same,relative viability,HCC-366; first compound 0.04 µM,0.429
same,relative viability,HCC-366; first compound 0.1265 µM,0.366
same,relative viability,HCC-366; first compound 0.4 µM,0.365
same,relative viability,HCC-366; first compound 1.265 µM,0.361
same,relative viability,HCC-366; first compound 4 µM,0.243
same,relative viability,HCC-78; first compound 0.04 µM,0.737
same,relative viability,HCC-78; first compound 0.1265 µM,0.455
same,relative viability,HCC-78; first compound 0.4 µM,0.492
same,relative viability,HCC-78; first compound 1.265 µM,0.289
same,relative viability,HCC-78; first compound 4 µM,0.348
same,relative viability,LC-2-ad; first compound 0.04 µM,0.934
same,relative viability,LC-2-ad; first compound 0.1265 µM,0.86
same,relative viability,LC-2-ad; first compound 0.4 µM,0.865
same,relative viability,LC-2-ad; first compound 1.265 µM,0.896
same,relative viability,LC-2-ad; first compound 4 µM,0.993
same,relative viability,LK-2; first compound 0.04 µM,0.927
same,relative viability,LK-2; first compound 0.1265 µM,0.911
same,relative viability,LK-2; first compound 0.4 µM,0.728
same,relative viability,LK-2; first compound 4 µM,0.514
same,relative viability,NCI-H1650; first compound 0.04 µM,0.586
same,relative viability,NCI-H1650; first compound 0.1265 µM,0.633
same,relative viability,NCI-H1650; first compound 0.4 µM,0.559
same,relative viability,NCI-H1650; first compound 1.265 µM,0.386
same,relative viability,NCI-H1650; first compound 4 µM,0.532
same,relative viability,NCI-H1734; first compound 0.04 µM,0.669
same,relative viability,NCI-H1734; first compound 0.1265 µM,0.755
same,relative viability,NCI-H1734; first compound 0.4 µM,0.643
same,relative viability,NCI-H1734; first compound 1.265 µM,0.623
same,relative viability,NCI-H1734; first compound 4 µM,0.621
same,relative viability,NCI-H1793; first compound 0.04 µM,0.433
same,relative viability,NCI-H1793; first compound 0.1265 µM,0.381
same,relative viability,NCI-H1793; first compound 0.4 µM,0.462
same,relative viability,NCI-H1793; first compound 1.265 µM,0.432
same,relative viability,NCI-H1793; first compound 4 µM,0.578
same,relative viability,NCI-H1944; first compound 0.04 µM,0.386
same,relative viability,NCI-H1944; first compound 0.1265 µM,0.48
same,relative viability,NCI-H1944; first compound 0.4 µM,0.396
same,relative viability,NCI-H1944; first compound 1.265 µM,0.398
same,relative viability,NCI-H1944; first compound 4 µM,0.398
same,relative viability,NCI-H1993; first compound 0.04 µM,0.413
same,relative viability,NCI-H1993; first compound 0.1265 µM,0.458
same,relative viability,NCI-H1993; first compound 0.4 µM,0.447
same,relative viability,NCI-H1993; first compound 4 µM,0.45
same,relative viability,NCI-H2009; first compound 0.04 µM,0.272
same,relative viability,NCI-H2009; first compound 0.1265 µM,0.271
same,relative viability,NCI-H2009; first compound 0.4 µM,0.264
same,relative viability,NCI-H2009; first compound 1.265 µM,0.211
same,relative viability,NCI-H2009; first compound 4 µM,0.295
same,relative viability,NCI-H2023; first compound 0.04 µM,0.563
same,relative viability,NCI-H2023; first compound 0.1265 µM,0.535
same,relative viability,NCI-H2023; first compound 0.4 µM,0.475
same,relative viability,NCI-H2023; first compound 1.265 µM,0.364
same,relative viability,NCI-H2023; first compound 4 µM,0.2
same,relative viability,NCI-H2228; first compound 0.04 µM,0.214
same,relative viability,NCI-H2228; first compound 0.1265 µM,0.108
same,relative viability,NCI-H2228; first compound 0.4 µM,0.268
same,relative viability,NCI-H2228; first compound 1.265 µM,0.174
same,relative viability,NCI-H2228; first compound 4 µM,0.231
same,relative viability,NCI-H23; first compound 0.04 µM,0.383
same,relative viability,NCI-H23; first compound 0.1265 µM,0.336
same,relative viability,NCI-H23; first compound 0.4 µM,0.366
same,relative viability,NCI-H23; first compound 1.265 µM,0.28
same,relative viability,NCI-H23; first compound 4 µM,0.247
same,relative viability,NCI-H2405; first compound 0.04 µM,0.676
same,relative viability,NCI-H2405; first compound 0.1265 µM,0.706
same,relative viability,NCI-H2405; first compound 0.4 µM,0.529
same,relative viability,NCI-H2405; first compound 1.265 µM,0.455
same,relative viability,NCI-H2405; first compound 4 µM,0.545
same,relative viability,NCI-H838; first compound 0.04 µM,0.518
same,relative viability,NCI-H838; first compound 0.1265 µM,0.439
same,relative viability,NCI-H838; first compound 0.4 µM,0.435
same,relative viability,NCI-H838; first compound 1.265 µM,0.409
same,relative viability,NCI-H838; first compound 4 µM,0.354
same,relative viability,SK-LU-1; first compound 0.04 µM,0.394
same,relative viability,SK-LU-1; first compound 0.1265 µM,0.388
same,relative viability,SK-LU-1; first compound 0.4 µM,0.451
same,relative viability,SK-LU-1; first compound 1.265 µM,0.474
same,relative viability,SK-LU-1; first compound 4 µM,0.363
same,relative viability,UMC-11; first compound 0.04 µM,0.532
same,relative viability,UMC-11; first compound 0.1265 µM,0.861
same,relative viability,UMC-11; first compound 0.4 µM,0.727
same,relative viability,UMC-11; first compound 1.265 µM,0.707
same,relative viability,UMC-11; first compound 4 µM,0.531
